Legend:
[1] = target: T1, α-syn (Homo sapiens, UniProt P37840); test: Transmission electron microscopy (TEM) of α-syn fibrils; type: biochemical; details: compound 100 μM
T1 construct: purchased rPeptide
Protocol: (§1) Transmission electron microscopy (TEM). After performing analysis with ThT fluorescence assay, TEM was utilized to detect fibril formation. A volume of 10 μL was applied to a 400-mesh Formvar-carbon-coated copper grid (Electron Microscopy Sciences, Hatfield, PA). The grids were incubated for 1 minute and washed three times with distilled water. They were carefully air-dried and incubated for 1 minute in a fresh solution of 1% uranyl acetate. Samples were air-dried and observed using a transmission microscope. Visualization of the grids was performed with TEM (JEOL 1400 Flash, Japan). Acquisition of pictures was performed with settings of accelerating voltage of 100 kV and magnification of 25 k and/or 40 k.

[2] = target: T1, α-syn; test: Photo-induced cross-linking of unmodified proteins (PICUP), α-syn oligomerization; type: biochemical; details: for α-syn oligomer formation (PICUP): compound 50 μM, molar ratio 1:5 (protein:compound)
Protocol: Photo-induced Cross-linking of Unmodified Proteins (PICUP) Assay. To induce oligomerization by cross-linking, α-syn (from Rpeptide, LLC) and tau isoform 2N4R were diluted in 10 mM phosphate buffer (pH 7.4) to reach a final concentration of 10 μM. Different compounds were added to the protein solution at a final concentration of 50 μM, resulting in a molar ratio of 1:5. To confirm the gradual effect of the compounds on the inhibition of α-syn oligomerization, the compounds were tested at final concentrations of 3.125, 6.25, 12.5, 25, and 50 μM. The controls consisted of samples without light exposition, without Ru(bpy) or ammonium persulfate, and without compound (i.e., 0.125% DMSO). The cross-linking reaction was initiated by the addition of 2 μL of Ru(bpy) (300 μM final concentration) and 2 μL ammonium persulfate (6 mM final concentration). Samples were irradiated immediately. Light exposure was of a one-second duration for α-syn and a three-second duration for tau isoform 2N4R, with a 53 W (120 V) incandescent lamp installed in a homemade dark-box. Each tube contained a final volume of 20 μL. After irradiation, 8.3 μL of Laemmli loading buffer containing 15% β-mercaptoethanol were immediately added to the solution, followed by incubation at 95° C. for 10 minutes. The cross-linked samples were separated on a 16% SDS-PAGE gel and visualized by Coomassie blue staining.

[3] = tested on: M17D neuroblastoma cells that express inclusion-prone αS-3K::YFP; test: α-Syn inclusion-forming neuroblastoma cell experiment; type: cell-based; details: t=96 hrs
Protocol: α-Syn (or αS) inclusion-forming neuroblastoma cell experiment. Dox-inducible neuroblastoma cells M17D-TR/αS-3K::YFP have been used previously. 96-well plates were used with a cellular density of 30,000 cells per well. Compounds were added […], and αS-3K::YFP transgene expression was induced […]. Induction was done by adding 1 μg per mL (final concentration) dox to culture media. Cells were incubated in the Incucyte Zoom 2000 platform (Essen Biosciences), and images (green, bright field) were taken continuously. Endpoint analysis of inclusion formation or growth was performed 48 hours after induction (96 hours after plating). The Incucyte processing definition ‘Inclusions’ was created as follows: Parameters, Fixed Threshold, Threshold (GCU) 50; Edge Split On, Edge Sensitivity 100; Cleanup, Hole Fill (μm^2): 10, Adjust Size (pixels): 0; Filters, Area (μm^2): max 50, Mean Intensity: min 60, Integrated Intensity: min 2000. Cell confluence was measured by the processing definition ‘Cells’: Parameters, Segmentation Adjustment 0.7; Cleanup, all parameters set to 0; Filters, Area (μm^2): min 345.00. As described previously for the evaluation of protein expression by SDS-PAGE and Western Blotting in the LiCor system, αS-specific monoclonal antibody 4B12 (Thermofisher, Waltham, MA; 1:1000) and a polyclonal antibody to GAPDH (Sigma-Aldrich, St. Louis, MO, G9545; 1:5000) were used.

[4] = target: T2, tau isoform 2N4R (Homo sapiens, UniProt P10636); test: TEM of tau isoform 2N4R fibrils; type: biochemical; details: compound 100 μM, tau 10 μM, molar ratio 1:10
T2 construct: made in house; host or cells: E. coli BL21(DE3)
T2 sequence (P10636 1-441 isoform P10636-8): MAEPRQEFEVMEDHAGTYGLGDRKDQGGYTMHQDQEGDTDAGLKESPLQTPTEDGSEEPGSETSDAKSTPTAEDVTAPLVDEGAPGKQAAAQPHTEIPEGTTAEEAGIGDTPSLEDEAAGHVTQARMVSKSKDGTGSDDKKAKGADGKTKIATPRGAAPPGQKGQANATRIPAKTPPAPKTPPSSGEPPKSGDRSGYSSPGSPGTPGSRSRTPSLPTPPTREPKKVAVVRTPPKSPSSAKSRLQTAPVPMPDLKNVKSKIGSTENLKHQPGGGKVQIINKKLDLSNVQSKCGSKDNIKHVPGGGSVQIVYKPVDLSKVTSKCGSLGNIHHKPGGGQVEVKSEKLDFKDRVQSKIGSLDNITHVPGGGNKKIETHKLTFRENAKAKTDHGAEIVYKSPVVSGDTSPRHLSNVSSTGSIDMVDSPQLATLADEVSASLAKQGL
Protocol: as §1

Nc1nsc2ccc([N+](=O)[O-])cc12 [A, 5-nitro-1,2-benzothiazol-3-amine]
α-syn fibrils by TEM [1]: clear effect in reducing α-syn and tau fibrillization
α-syn oligomer formation (PICUP), dose dependence ([2]; 3.125-50 μM): reduced the oligomer formation in a dose-dependent manner
α-syn oligomer formation (PICUP) ([2]; listed as 5-nitro-1,2-benzothiazol-3-amine): reduced α-syn and tau isoform 2N4R oligomer formation
α-syn oligomer formation (PICUP) ([2]; listed as nitro-1,2-benzothiazol-3-amine): reduced the oligomer formation
cell confluence ([3]; different concentrations): without any effect on the cell confluence
number of αS-3K::YFP inclusions ([3]; different concentrations, vs 0.1% DMSO): reduced the number of inclusions in a dose-dependent manner
concentration from which the number of inclusions was reduced [3]: 10 µM
tau isoform 2N4R fibrils by TEM [4]: clear effect in reducing α-syn and tau fibrillization

Reference: US20260224538A1 (Purdue Research Foundation, priority 2023, published 2026)
